Strand notation (5' to 3'): a small letter for the sugar, then the base; units joined by * are phosphorothioate-linked, units joined directly phosphodiester-linked; [ ] holds rarer units or linkages, { } end groups; capitals alone tell only the bases. [ms] = mesyl phosphoramidate linkage; e = 2'-O-(2-methoxyethyl) (MOE); k = constrained ethyl (cEt); [5mC] = 5-methylcytosine; d = 2'-deoxy (DNA)
Key:
human APOE RNA [1] = experiment: Potency (dose response, ED50) in APOE C57BL/6NTac-Apoeem7250 knock-in mice, 4 weeks (Example 14); format: in vivo; settings: for ED 50 (μg) Cortex / ED 50 (μg) Spinal Cord: single ICV bolus, GraphPad Prism 10
Description: Modified oligonucleotides described above were tested in the APOE C57BL/6NTac-Apoeem7250 knock-in mouse model described above.
APOE C57BL/6NTac-Apoeem7250 knock-in mice were divided into groups of 3-4 mice each. A group of 3-4 mice received a single ICV bolus with PBS as a negative control.
Four weeks post treatment, mice were sacrificed, and RNA was extracted from cortical brain tissue and spinal cord for quantitative real-time RT-PCR analysis of RNA expression of […] using human primer probe set RTS3073 (described herein above). APOE RNA levels were normalized to mouse Ppia. Mouse Ppia was amplified using primer probe set m_cyclo24 (described herein above). Results are presented as percent human APOE RNA relative to the amount of APOE RNA in PBS treated animals, (% control). N.C. indicates values that were not calculated. Each experiment is identified in separate tables below.
The half maximal effective dose (ED50) of each modified oligonucleotide was calculated using GraphPad Prism 10 software (GraphPad Software, San Diego, CA).

human APOE RNA [2] = experiment: Activity in APOE C57BL/6NTac-Apoeem7250 knock-in mice, single ICV bolus, 4 weeks (Example 10); format: in vivo; settings: single ICV bolus 300 μg
In short: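 Knock-in mice (2–4 per group) received one 300 μg ICV bolus of oligonucleotide or PBS. After four weeks, human APOE RNA in cortex and spinal cord measured by RT-qPCR (primer probe set RTS3073), normalized to mouse Ppia, expressed as % of PBS controls.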

human APOE RNA [3] = experiment: Activity in APOE C57BL/6NTac-Apoeem7250 knock-in mice, single ICV bolus, 8 weeks (Example 11); format: in vivo; settings: single ICV bolus 300 μg, 8 weeks post treatment, normalized to mouse Ppia
In short: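 Human APOE knock-in C57BL/6NTac mice given one ICV bolus of 300 μg oligonucleotide; PBS-dosed group as control. At 8 weeks, cortex and spinal cord RNA measured by qRT-PCR (human probe RTS3073), normalized to mouse Ppia, expressed as % of PBS control.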

human APOE RNA [4] = experiment: Dose-dependent inhibition of human APOE RNA in differentiated SH-SY5Y cells, free uptake, 5 days (Example 5); format: cell-based; settings: 5 days (Table 14)
In short: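 Differentiated SH-SY5Y cells (10,000/well) treated by free uptake with graded oligonucleotide concentrations for 5 days. APOE RNA quantified with primer probe set RTS3073, normalized to PPIA, expressed as % untreated control; IC50 calculated.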

human APOE RNA [5] = experiment: Dose-dependent reduction of human APOE RNA in HepG2 cells, electroporation, 20,000 cells per well, average of GAPDH- and PPIA-normalized results (Example 4, Table 12); format: cell-based; settings: HepG2, 20,000 cells per well
Description: HepG2 cells plated at a density of 20,000 cells per well were treated by electroporation with various concentrations of modified oligonucleotide as specified in the tables below. […] APOE RNA levels were measured using the human primer probe set RTS3073 (described herein above). APOE RNA levels were normalized to human GAPDH, and human PPIA. Human GAPDH was amplified using human primer probe set RTS104 (described herein above). Human PPIA was amplified using human primer probe set mk_cycloA_2nd (described herein above) The average of the GAPDH-normalized results and the PPIA-normalized results are presented in the table below as percent APOE RNA, relative to the amount of APOE RNA in untreated control cells (% UTC). The half maximal inhibitory concentration (IC50) of each modified oligonucleotide was calculated in GraphPad Prism 10 (GraphPad Software, San Diego, CA) and is also presented in the table below.

In the case of “1693105: 6-10-4 MOE gapmer CTTGGTGAATCTTTATTAAA, linkages sosssszzzssssszssss (e[5mC]*eTeT*eG*eG*eT*dG[ms]dA[ms]dA[ms]dT*d[5mC]*dT*dT*dT*dA[ms]dT*eT*eA*eA*eA) [compound 1693105]”, the “APOE RNA (% control) Cortex” value (human APOE RNA [1]; ICV dose 10 μg) is reported as 100 % control, the “APOE RNA (% control) Cortex” value (human APOE RNA [1]; ICV dose 30 μg) is reported as 85 % control and the “APOE RNA (% control) Cortex” value (human APOE RNA [1]; ICV dose 100 μg) is reported as 77 % control. The “APOE RNA (% control) Cortex” value (human APOE RNA [1]; ICV dose 300 μg) was 59 % control, the “APOE RNA (% control) Cortex” value (human APOE RNA [1]; ICV dose 700 μg) was 48 % control and the “ED 50 (μg) Cortex” value (human APOE RNA [1]) was 573.3 µg. The “APOE RNA (% control) Spinal Cord” value (human APOE RNA [1]; ICV dose 10 μg) was 71 % control, the “APOE RNA (% control) Spinal Cord” value (human APOE RNA [1]; ICV dose 30 μg) was 71 % control and the “APOE RNA (% control) Spinal Cord” value (human APOE RNA [1]; ICV dose 100 μg) was 47 % control. The “APOE RNA (% control) Spinal Cord” value (human APOE RNA [1]; ICV dose 300 μg) was 49 % control, the “APOE RNA (% control) Spinal Cord” value (human APOE RNA [1]; ICV dose 700 μg) was 61 % control and the “ED 50 (μg) Spinal Cord” value (human APOE RNA [1]) was 892.8 µg. For the same substance, the “APOE RNA (% control) Cortex” value (human APOE RNA [2]; Cortex, C57BL/6NTac-Apoeem7250 knock-in mice, 4 weeks (Table 21)) was 54 % control, the “APOE RNA (% control) Cortex” value (human APOE RNA [2]; Cortex, C57BL/6NTac-Apoeem7250 knock-in mice, 4 weeks (Table 22)) was 65 % control and the “APOE RNA (% control) Spinal Cord” value (human APOE RNA [2]; Spinal Cord, C57BL/6NTac-Apoeem7250 knock-in mice, 4 weeks (Table 21)) was 51 % control. The “APOE RNA (% control) Spinal Cord” value (human APOE RNA [2]; Spinal Cord, C57BL/6NTac-Apoeem7250 knock-in mice, 4 weeks (Table 22)) was 87 % control, the “APOE RNA (% control) Cortex” value (human APOE RNA [3]) was 58 % control and the “APOE RNA (% control) Spinal Cord” value (human APOE RNA [3]) was 43 % control.
In the case of “1746809 (k[5mC]*dT[ms]kT*dG[ms]kG*dT[ms]dG[ms]dA[ms]dA[ms]dT*d[5mC]*dT*dT*dT*dA[ms]dT*dT[ms]kA*kA*kA; antisense) [Compound 1746809]”, the “APOE RNA (% control) Cortex” value (human APOE RNA [1]; ICV dose 10 μg) is reported as 98 % control, the “APOE RNA (% control) Cortex” value (human APOE RNA [1]; ICV dose 30 μg) is reported as 89 % control and the “APOE RNA (% control) Cortex” value (human APOE RNA [1]; ICV dose 100 μg) is reported as 79 % control. For the same substance, the “APOE RNA (% control) Cortex” value (human APOE RNA [1]; ICV dose 300 μg) was 57 % control, the “APOE RNA (% control) Cortex” value (human APOE RNA [1]; ICV dose 700 μg) was 41 % control and the “ED 50 (μg) Cortex” value (human APOE RNA [1]) was 446.6 µg. For the same substance, the “APOE RNA (% control) Spinal Cord” value (human APOE RNA [1]; ICV dose 10 μg) was 105 % control, the “APOE RNA (% control) Spinal Cord” value (human APOE RNA [1]; ICV dose 30 μg) was 92 % control and the “APOE RNA (% control) Spinal Cord” value (human APOE RNA [1]; ICV dose 100 μg) was 59 % control. The “APOE RNA (% control) Spinal Cord” value (human APOE RNA [1]; ICV dose 300 μg) was 48 % control, the “APOE RNA (% control) Spinal Cord” value (human APOE RNA [1]; ICV dose 700 μg) was 64 % control and the “ED 50 (μg) Spinal Cord” value (human APOE RNA [1]) was 652.7 µg. For the same substance, the “APOE RNA (% UTC)” value (human APOE RNA [4]; 5 nM) was 93 % UTC, the “APOE RNA (% UTC)” value (human APOE RNA [4]; 13 nM) was 118 % UTC and the “APOE RNA (% UTC)” value (human APOE RNA [4]; 33 nM) was 80 % UTC. For the same substance, the “APOE RNA (% UTC)” value (human APOE RNA [4]; 82 nM) was 68 % UTC, the “APOE RNA (% UTC)” value (human APOE RNA [4]; 205 nM) was 77 % UTC and the “APOE RNA (% UTC)” value (human APOE RNA [4]; 512 nM) was 57 % UTC. For the same substance, the “APOE RNA (% UTC)” value (human APOE RNA [4]; 1,280 nM) was 31 % UTC, the “APOE RNA (% UTC)” value (human APOE RNA [4]; 3,200 nM) was 34 % UTC and the “APOE RNA (% UTC)” value (human APOE RNA [4]; 8,000 nM) was 12 % UTC. The “APOE RNA (% UTC)” value (human APOE RNA [4]; 20,000 nM) was 8 % UTC, the IC50 (human APOE RNA [4]) was 660 nM and the “APOE RNA (% control) Cortex” value (human APOE RNA [2]; cortex, 4 weeks post treatment, normalized to mouse Ppia) was 36 % control. For the same substance, the “APOE RNA (% control) Spinal Cord” value (human APOE RNA [2]; spinal cord, 4 weeks post treatment, normalized to mouse Ppia) was 59 % control, the “APOE RNA (% UTC)” value (human APOE RNA [5]; 5 nM) was 97 % UTC and the “APOE RNA (% UTC)” value (human APOE RNA [5]; 13 nM) was 94 % UTC. The “APOE RNA (% UTC)” value (human APOE RNA [5]; 33 nM) was 86 % UTC, the “APOE RNA (% UTC)” value (human APOE RNA [5]; 82 nM) was 72 % UTC and the “APOE RNA (% UTC)” value (human APOE RNA [5]; 205 nM) was 59 % UTC. For the same substance, the “APOE RNA (% UTC)” value (human APOE RNA [5]; 512 nM) was 34 % UTC, the “APOE RNA (% UTC)” value (human APOE RNA [5]; 1,280 nM) was 28 % UTC and the “APOE RNA (% UTC)” value (human APOE RNA [5]; 3,200 nM) was 11 % UTC. For the same substance, the “APOE RNA (% UTC)” value (human APOE RNA [5]; 8,000 nM) was 15 % UTC, the “APOE RNA (% UTC)” value (human APOE RNA [5]; 20,000 nM) was 10 % UTC and the IC50 (human APOE RNA [5]; approximately 24 hours) was 310 nM. For the same substance, the “APOE RNA (% control) Cortex” value (human APOE RNA [3]) was 47 % control and the “APOE RNA (% control) Spinal Cord” value (human APOE RNA [3]) was 44 % control.

Source: US20250353873A1, “COMPOUNDS AND METHODS FOR MODULATING APOE EXPRESSION” (Ionis Pharmaceuticals, Inc., priority 2024, published 2025)
